Patent US20240409585A1, “MACROCYCLIC IMMUNOMODULATORS” (priority 2021, published 2024)
Numbered stars: 1 amine (or outer) side, 2 acyl side, 3 side chain; on linkers, the order of the positions; unused ones are H or OH. Bridge positions count the residues as written; N and C are the ends. Square brackets hold non-standard residues; d marks the D form. Peptide text beside a SMILES is read from it. * marks the point of attachment. ξ: configuration not given here. X22 = NC(=O)c1cccc(-c2ccc(C[C@H](N[*:1])C(=O)[*:2])cc2)c1; dPhe(3-NO2) = N[C@H](Cc1cccc([N+](=O)[O-])c1)C(=O)O; Phe(4-COOH) = N[C@@H](Cc1ccc(C(=O)O)cc1)C(=O)O; Bip = N[C@@H](Cc1ccc(-c2ccccc2)cc1)C(=O)O; Phe(3-CN) = N#Cc1cccc(C[C@H](N)C(=O)O)c1; Phe(3-Me) = Cc1cccc(C[C@H](N)C(=O)O)c1; Cyclopropanecarbonyl = O=C(C1CC1)*; aIle = CC[C@@H](C)[C@H](N)C(=O)O; 4Pal = N[C@@H](Cc1ccncc1)C(=O)O; Cha = N[C@@H](CC1CCCCC1)C(=O)O; Cit = NC(=O)NCCC[C@H](N)C(=O)O; Thr(3ξ) = CC(O)[C@H](N)C(=O)O; ξCha = NC(CC1CCCCC1)C(=O)O; Carboxymethyl = O=C(O)C*; NMeA = CN[C@@H](C)C(=O)O; Nle = CCCC[C@H](N)C(=O)O; Orn = NCCC[C@H](N)C(=O)O; Dab = NCC[C@H](N)C(=O)O; Dap = NC[C@H](N)C(=O)O; ξV = CC(C)C(N)C(=O)O

molecular target: T1, PE-labeled human PD-L1-Ig binding to Jurkat cell line over-expressing human PD-1 (Jurkat-PD-1) (Homo sapiens, UniProt Q15116); assay: Jurkat-PD-1 Cell Binding High-Content Screening Assay (CBA): Method 1; details: Jurkat-hPD-1 cells, PE-labeled PD-L1-Ig 20 nM final; read-out: Jurkat HPDL1 PD1 IC50 (uM) (Method 1)
T1 construct: expressed in transfected cells; host or cells: Jurkat
T1 sequence (Q15116 25-288): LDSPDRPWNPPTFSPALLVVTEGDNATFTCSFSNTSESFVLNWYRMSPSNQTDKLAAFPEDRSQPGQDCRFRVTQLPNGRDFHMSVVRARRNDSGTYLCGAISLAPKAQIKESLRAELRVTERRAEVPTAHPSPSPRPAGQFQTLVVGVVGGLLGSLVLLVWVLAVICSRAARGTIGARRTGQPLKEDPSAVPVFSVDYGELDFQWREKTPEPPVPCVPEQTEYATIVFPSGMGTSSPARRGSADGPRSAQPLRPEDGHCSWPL

Row | Compound | IC50 [µM]
1 | Cc1cccc(C[C@@H]2NC(=O)[C@H](CC(=O)O)NC(=O)[C@H](Cc3ccc(OCC(=O)O)cc3)NC(=O)[C@H](Cc3ccncc3)NC(=O)CSC[C@@H](C(N)=O)NC(=O)[C@H](CCC(=O)O)NC(=O)[C@H](C(C)C)NC(=O)[C@H](CC3CCCCC3)NC(=O)[C@H](CCN)NC(=O)[C@@H](CC(C)C)NC(=O)[C@H](C)N(C)C(=O)[C@H](Cc3ccc(OCC(=O)O)cc3)NC(=O)[C@H](Cc3ccc(-c4ccccc4)cc3)NC(=O)[C@H](Cc3ccc(OCC(=O)O)cc3)NC2=O)c1 [Compound 1661] ({CH2CO}-[4Pal]Y(Carboxymethyl)D[Phe(3-Me)]Y(Carboxymethyl)[Bip]Y(Carboxymethyl)[NMeA][dL][Dab][Cha]VEC-NH2; thioether N-14) | 0.05
2 | CCCC[C@@H]1NC(=O)[C@H](CCCNC(=N)N)NC(=O)[C@@H](CC(C)C)NC(=O)[C@H](C)N(C)C(=O)[C@H](C(C)C)NC(=O)[C@H](Cc2ccc(-c3ccccc3)cc2)NC(=O)[C@H](C(C)C)NC(=O)[C@H](Cc2c[nH]c3ccccc23)NC(=O)[C@H](CC(=O)O)NC(=O)[C@H](Cc2ccc(O)cc2)NC(=O)[C@H](CC(N)=O)NC(=O)CSC[C@@H](C(=O)N[C@@H](C)C(N)=O)NC(=O)[C@H]([C@@H](C)O)NC(=O)[C@H](C(C)C)NC1=O [Compound 1293] ({CH2CO}-NYDWV[Bip]V[NMeA][dL]R[Nle]VTCA-NH2; thioether N-14) | 0.07
3 | CC(C)C[C@@H]1NC(=O)[C@H](CCN)NC(=O)[C@@H](CC(C)C)NC(=O)[C@H](C)N(C)C(=O)[C@H](CCCNC(=N)N)NC(=O)[C@H](Cc2ccc(-c3ccccc3)cc2)NC(=O)[C@H](C(C)C)NC(=O)[C@H](Cc2cccc(C#N)c2)NC(=O)[C@H](CC(=O)O)NC(=O)[C@H](Cc2ccc(C(=O)O)cc2)NC(=O)[C@H](CN)NC(=O)CSC[C@@H](C(=O)N[C@@H](C)C(N)=O)NC(=O)[C@H]([C@@H](C)O)NC(=O)[C@H](C(C)C)NC1=O [Compound 1461] ({CH2CO}-[Dap][Phe(4-COOH)]D[Phe(3-CN)]V[Bip]R[NMeA][dL][Dab]LVTCA-NH2; thioether N-14) | 0.23
4 | Cc1cccc(C[C@@H]2NC(=O)[C@H](CC(=O)O)NC(=O)[C@H](Cc3ccc(OCC(=O)O)cc3)NC(=O)[C@H](Cc3ccncc3)NC(=O)CSC[C@@H](C(=O)N[C@@H](C)C(N)=O)NC(=O)[C@H]([C@@H](C)O)NC(=O)[C@H](C(C)C)NC(=O)[C@H](CC(C)C)NC(=O)[C@H](CCN)NC(=O)[C@@H](CC(C)C)NC(=O)[C@H](C)N(C)C(=O)[C@H](CCCNC(N)=O)NC(=O)[C@H](Cc3ccc(-c4ccccc4)cc3)NC(=O)[C@H](C(C)C)NC2=O)c1 [Compound 1421] ({CH2CO}-[4Pal]Y(Carboxymethyl)D[Phe(3-Me)]V[Bip][Cit][NMeA][dL][Dab]LVTCA-NH2; thioether N-14) | 0.01
5 | CC[C@H](C)[C@@H]1NC(=O)[C@H](Cc2ccc(-c3ccccc3)cc2)NC(=O)[C@H](C(C)C)NC(=O)[C@H](Cc2c[nH]c3ccccc23)NC(=O)[C@H](CC(=O)O)NC(=O)[C@H](Cc2ccc(O)cc2)NC(=O)[C@H](CN)NC(=O)CSC[C@@H](C(=O)N[C@@H](C)C(N)=O)NC(=O)[C@H]([C@@H](C)O)NC(=O)[C@H](C(C)C)NC(=O)[C@H](CC2CCCCC2)NC(=O)[C@H](CCCNC(=N)N)NC(=O)[C@@H](CC(C)C)NC(=O)[C@H](C)N(C)C1=O [Compound 1492] ({CH2CO}-[Dap]YDWV[Bip]I[NMeA][dL]R[Cha]VTCA-NH2; thioether N-14) | 0.04
6 | Cc1cccc(C[C@@H]2NC(=O)[C@H](CC(=O)O)NC(=O)[C@H](Cc3ccc(OCC(=O)O)cc3)NC(=O)[C@H](CCCNC(=O)C3CC3)NC(=O)CSC[C@@H](C(=O)N[C@@H](CO)C(N)=O)NC(=O)[C@H](CO)NC(=O)[C@H](C(C)O)NC(=O)C(CC3CCCCC3)NC(=O)[C@H](CCCNC(=N)N)NC(=O)[C@@H](CC(C)C)NC(=O)[C@H](C)N(C)C(=O)[C@H](CCCNC(N)=O)NC(=O)[C@H](Cc3ccc(-c4ccccc4)cc3)NC(=O)[C@H](C(C)C)NC2=O)c1 (stereo partly drawn) [Compound 2113] ({CH2CO}-[Orn](Cyclopropanecarbonyl)Y(Carboxymethyl)D[Phe(3-Me)]V[Bip][Cit][NMeA][dL]R[ξCha][Thr(3ξ)]SCS-NH2; thioether N-14) | 0.02
7 | CC[C@@H](C)[C@@H]1NC(=O)[C@H](Cc2ccc(-c3ccccc3)cc2)NC(=O)[C@H](CC(C)C)NC(=O)[C@H](Cc2c[nH]c3ccccc23)NC(=O)[C@H](CC(=O)O)NC(=O)[C@H](Cc2ccc(C(=O)O)cc2)NC(=O)[C@H](Cc2ccc(OCC(=O)O)cc2)NC(=O)CSC[C@@H](C(=O)N[C@@H](CCCCN)C(N)=O)NC(=O)[C@H](Cc2cnc[nH]2)NC(=O)C(C(C)C)NC(=O)[C@H](CC(C)C)NC(=O)[C@H](CC(N)=O)NC(=O)[C@@H](CC(C)C)NC(=O)[C@H](C)N(C)C1=O (stereo partly drawn) [Compound 2104] ({CH2CO}-Y(Carboxymethyl)[Phe(4-COOH)]DWL[Bip][aIle][NMeA][dL]NL[ξV]HCK-NH2; thioether N-14) | 0.05
8 | CC(C)C[C@@H]1NC(=O)[C@H](Cc2c[nH]c3ccccc23)NC(=O)[C@H](CC(=O)O)NC(=O)[C@H](Cc2ccc(O)cc2)NC(=O)[C@H](Cc2ccccc2)NC(=O)CSC[C@@H](C(=O)NCC(N)=O)NC(=O)[C@H]([C@@H](C)O)NC(=O)[C@H](C(C)C)NC(=O)[C@H](CC(C)C)NC(=O)[C@H](CCN)NC(=O)[C@@H](CC(C)C)NC(=O)[C@H](C)N(C)C(=O)[C@H](C(C)C)NC(=O)[C@H](Cc2ccc(-c3ccccc3)cc2)NC1=O [Compound 1469] ({CH2CO}-FYDWL[Bip]V[NMeA][dL][Dab]LVTCG-NH2; thioether N-14) | 0.01
9 | Cc1cccc(C[C@@H]2NC(=O)[C@H](CC(=O)O)NC(=O)[C@H](Cc3ccc(C(=O)O)cc3)NC(=O)[C@H](Cc3ccc(OCC(=O)O)cc3)NC(=O)CSC[C@@H](C(=O)N[C@H](CC(N)=O)C(N)=O)NC(=O)[C@H](CO)NC(=O)[C@H](C(C)C)NC(=O)[C@H](CC(C)C)NC(=O)[C@H](CCN)NC(=O)[C@@H](CC(C)C)NC(=O)[C@H](C)N(C)C(=O)[C@H](C(C)C)NC(=O)[C@H](Cc3ccc(-c4ccccc4)cc3)NC(=O)[C@H](CC(C)C)NC2=O)c1 [Compound 2112] ({CH2CO}-Y(Carboxymethyl)[Phe(4-COOH)]D[Phe(3-Me)]L[Bip]V[NMeA][dL][Dab]LVSC[dN]-NH2; thioether N-14) | 0.02
10 | Cc1cccc(C[C@@H]2NC(=O)[C@H](CC(=O)O)NC(=O)[C@H](Cc3ccc(OCC(=O)O)cc3)NC(=O)[C@H](CN)NC(=O)CSC[C@@H](C(=O)N[C@@H](C)C(N)=O)NC(=O)[C@H]([C@@H](C)O)NC(=O)[C@H](C(C)C)NC(=O)[C@H](CC(C)C)NC(=O)[C@H](CCN)NC(=O)[C@@H](CC(C)C)NC(=O)[C@H](C)N(C)C(=O)[C@H](C(C)C)NC(=O)[C@H](Cc3ccc(-c4ccccc4)cc3)NC(=O)[C@H](C(C)C)NC2=O)c1 [Compound 1418] ({CH2CO}-[Dap]Y(Carboxymethyl)D[Phe(3-Me)]V[Bip]V[NMeA][dL][Dab]LVTCA-NH2; thioether N-14) | 0.01
11 | CCCC[C@@H]1NC(=O)[C@H](CCCNC(=N)N)NC(=O)[C@@H](CC(C)C)NC(=O)[C@H](C)N(C)C(=O)[C@H]([C@@H](C)CC)NC(=O)[C@H](Cc2ccc(-c3ccccc3)cc2)NC(=O)[C@H](C(C)C)NC(=O)[C@H](Cc2c[nH]c3ccccc23)NC(=O)[C@H](CC(=O)O)NC(=O)[C@H](Cc2ccc(O)cc2)NC(=O)[C@H](CC(N)=O)NC(=O)CSC[C@@H](C(=O)N[C@@H](C)C(N)=O)NC(=O)[C@H]([C@@H](C)O)NC(=O)[C@H](C(C)C)NC1=O [Compound 1498] ({CH2CO}-NYDWV[Bip]I[NMeA][dL]R[Nle]VTCA-NH2; thioether N-14) | 0.12
12 | CC(C)C[C@@H]1NC(=O)[C@H](CCN)NC(=O)[C@@H](CC(C)C)NC(=O)[C@H](C)N(C)C(=O)[C@H](CCCNC(=N)N)NC(=O)[C@H](Cc2ccc(-c3ccccc3)cc2)NC(=O)[C@H](C(C)C)NC(=O)[C@H](Cc2c[nH]c3ccccc23)NC(=O)[C@H](CC(=O)O)NC(=O)[C@H](Cc2ccc(O)cc2)NC(=O)[C@H](CC(N)=O)NC(=O)CSC[C@@H](C(=O)N[C@H](C)C(N)=O)NC(=O)[C@H]([C@@H](C)O)NC(=O)[C@H](C(C)C)NC1=O [Compound 1183] ({CH2CO}-NYDWV[Bip]R[NMeA][dL][Dab]LVTC[dA]-NH2; thioether N-14) | 0.15
13 | CC(C)C[C@@H]1NC(=O)[C@H](CCN)NC(=O)[C@@H](CC(C)C)NC(=O)[C@H](C)N(C)C(=O)[C@H](CCCNC(=N)N)NC(=O)[C@H](Cc2ccc(-c3cccc(C(N)=O)c3)cc2)NC(=O)[C@H](C(C)C)NC(=O)[C@H](Cc2c[nH]c3ccccc23)NC(=O)[C@H](CC(=O)O)NC(=O)[C@H](Cc2ccc(O)cc2)NC(=O)[C@H](CC(N)=O)NC(=O)CSC[C@@H](C(=O)N[C@@H](C)C(N)=O)NC(=O)[C@H]([C@@H](C)O)NC(=O)[C@H](C(C)C)NC1=O [Compound 1225] ({CH2CO}-NYDWV[X22]R[NMeA][dL][Dab]LVTCA-NH2; thioether N-14) | 0.29
14 | CC(C)C[C@@H]1NC(=O)[C@H](CCCNC(=N)N)NC(=O)[C@@H](Cc2cccc([N+](=O)[O-])c2)NC(=O)[C@H](C)N(C)C(=O)[C@H](CCCNC(=N)N)NC(=O)[C@H](Cc2ccc(-c3ccccc3)cc2)NC(=O)[C@H](C(C)C)NC(=O)[C@H](Cc2c[nH]c3ccccc23)NC(=O)[C@H](CC(=O)O)NC(=O)[C@H](Cc2ccc(O)cc2)NC(=O)[C@H](Cc2ccccc2)NC(=O)CSC[C@@H](C(=O)N[C@@H](C)C(N)=O)NC(=O)[C@H]([C@@H](C)O)NC(=O)[C@H](C(C)C)NC1=O [Compound 1074] ({CH2CO}-FYDWV[Bip]R[NMeA][dPhe(3-NO2)]RLVTCA-NH2; thioether N-14) | 0.11
15 | CC(C)C[C@@H]1NC(=O)[C@H](CCN)NC(=O)[C@@H](CC(C)C)NC(=O)[C@H](C)N(C)C(=O)[C@H](CCCN)NC(=O)[C@H](Cc2ccc(-c3ccccc3)cc2)NC(=O)[C@H](C(C)C)NC(=O)[C@H](Cc2c[nH]c3ccccc23)NC(=O)[C@H](CC(=O)O)NC(=O)[C@H](Cc2ccc(C(=O)O)cc2)NC(=O)[C@H](CC(N)=O)NC(=O)CSC[C@@H](C(=O)N[C@@H](C)C(N)=O)NC(=O)[C@H]([C@@H](C)O)NC(=O)[C@H](C(C)C)NC1=O [Compound 1386] ({CH2CO}-N[Phe(4-COOH)]DWV[Bip][Orn][NMeA][dL][Dab]LVTCA-NH2; thioether N-14) | 0.05
